# Test results published in patent US20250171457A1, “NITROGEN-CONTAINING HETEROCYCLIC COMPOUND HAVING NRF2 ACTIVATION EFFECT” (CHUGAI SEIYAKU KABUSHIKI KAISHA, priority 2022, published 2025).
# System: Nrf2 transcriptional activity (pARE-Luc reporter) in HepG2 cells
# Experiment: In vitro Nrf2 transcriptional activity measurement by ARE-dependent reporter assay in HepG2 cell
# Format: cell-based, human
# Conditions: Homo sapiens; HepG2 cells transfected with pARE-Luc, 4 hours at 37° C.; luciferase activity of Example 1-54 or Example 17-23 at 3.75 μM defined as 100%
# In short: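 Luminescence readout (Bright-Glo) after 4 h, 37° C compound exposure of HepG2 cells carrying the ARE-luciferase vector pGL4.37. Each well converted to % response versus reference compound at 3.75 μM, and EC50 derived from dose-response curves.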
row,SMILES,EC50
1,"O=C(O)c1cc(F)c(-c2cccc3c2OCN(C(=O)c2c(Cl)cc(N4CC(N5CCOCC5)C4)cc2Cl)C3)cc1N1C2CCC1COC2 [Compound 4-58, 4-[3-[2,6-Dichloro-4-(3-morpholin-4-ylazetidin-1-yl)benzoyl]-2,4-dihydro-1,3-benzoxazin-8-yl]-5-fluoro-2-(3-oxa-8-azabicyclo[3.2.1]octan-8-yl)benzoic acid]",5.2 nM
2,"O=C(O)c1cc(F)c(-c2cccc3c2OCN(C(=O)c2c(Cl)cc(N4CCN(C5COC5)CC4)cc2Cl)C3)cc1N1C2CCC1COC2 [Compound 4-59, 4-[3-[2,6-Dichloro-4-[4-(oxetan-3-yl)piperazin-1-yl]benzoyl]-2,4-dihydro-1,3-benzoxazin-8-yl]-5-fluoro-2-(3-oxa-8-azabicyclo[3.2.1]octan-8-yl)benzoic acid]",12 nM
3,"CN1CCN(c2cc(Cl)c(C(=O)N3COc4c(cccc4-c4cc(N5C6CCC5COC6)c(C(=O)O)cc4F)C3)c(Cl)c2)CC1 [Compound 4-60, 4-[3-[2,6-Dichloro-4-(4-methylpiperazin-1-yl)benzoyl]-2,4-dihydro-1,3-benzoxazin-8-yl]-5-fluoro-2-(3-oxa-8-azabicyclo[3.2.1]octan-8-yl)benzoic acid]",7.5 nM
4,"COC1COC2(CN(c3cc(Cl)c(C(=O)N4COc5c(cccc5-c5cc(N6C7CCC6COC7)c(C(=O)O)cc5F)C4)c(Cl)c3)C2)OC1 [Compound 5-3, 4-[3-[2,6-Dichloro-4-(7-methoxy-5,9-dioxa-2-azaspiro[3.5]nonan-2-yl)benzoyl]-2,4-dihydro-1,3-benzoxazin-8-yl]-5-fluoro-2-(3-oxa-8-azabicyclo[3.2.1]octan-8-yl)benzoic acid]",9.5 nM
5,"O=C(O)c1cc(F)c(-c2cccc3c2OCN(C(=O)c2c(Cl)cc(N4CC5(C4)OCCO5)cc2Cl)C3)cc1N1C2CCC1COC2 [Compound 5-4, 4-[3-[2,6-Dichloro-4-(5,8-dioxa-2-azaspiro[3.4]octan-2-yl)benzoyl]-2,4-dihydro-1,3-benzoxazin-8-yl]-5-fluoro-2-(3-oxa-8-azabicyclo[3.2.1]octan-8-yl)benzoic acid]",2.4 nM
6,"O=C(O)c1cc(F)c(-c2cccc3c2OCN(C(=O)c2c(Cl)cc(N4CC5(C4)OCC4(CC4)CO5)cc2Cl)C3)cc1N1C2CCC1COC2 [Compound 5-5, 4-[3-[2,6-Dichloro-4-(5,10-dioxa-8-azaspiro[2.2.36.23]undecan-8-yl)benzoyl]-2,4-dihydro-1,3-benzoxazin-8-yl]-5-fluoro-2-(3-oxa-8-azabicyclo[3.2.1]octan-8-yl)benzoic acid]",1 nM
7,"O=C(O)c1cc(F)c(-c2cccc3c2OCN(C(=O)c2c(Cl)cc(N4CC5(C4)OCCCCO5)cc2Cl)C3)cc1N1C2CCC1COC2 [Compound 5-6, 4-[3-[2,6-Dichloro-4-(5,10-dioxa-2-azaspiro[3.6]decan-2-yl)benzoyl]-2,4-dihydro-1,3-benzoxazin-8-yl]-5-fluoro-2-(3-oxa-8-azabicyclo[3.2.1]octan-8-yl)benzoic acid]",2.3 nM
8,"O=C(O)c1cc(F)c(-c2cccc3c2OCN(C(=O)c2c(Cl)cc(N4CC5(C4)OCC4(CCC4)CO5)cc2Cl)C3)cc1N1C2CCC1COC2 [Compound 5-8, 4-[3-[2,6-Dichloro-4-(6,11-dioxa-9-azadispiro[3.2.37.24]dodecan-9-yl)benzoyl]-2,4-dihydro-1,3-benzoxazin-8-yl]-5-fluoro-2-(3-oxa-8-azabicyclo[3.2.1]octan-8-yl)benzoic acid]",2 nM
9,"COC1(OC)CC2(CN(c3cc(Cl)c(C(=O)N4COc5c(cccc5-c5cc(N6C7CCC6COC7)c(C(=O)O)cc5F)C4)c(Cl)c3)C2)C1 [Compound 5-11, 4-[3-[2,6-Dichloro-4-(6,6-dimethoxy-2-azaspiro[3.3]heptan-2-yl)benzoyl]-2,4-dihydro-1,3-benzoxazin-8-yl]-5-fluoro-2-(3-oxa-8-azabicyclo[3.2.1]octan-8-yl)benzoic acid]",3.4 nM
10,"COC1(OC)CN(c2cc(Cl)c(C(=O)N3COc4c(cccc4-c4cc(N5C6CCC5COC6)c(C(=O)O)cc4F)C3)c(Cl)c2)[C@@H]1C [Compound 5-12, 4-[3-[2,6-Dichloro-4-[(2R)-3,3-dimethoxy-2-methylazetidin-1-yl]benzoyl]-2,4-dihydro-1,3-benzoxazin-8-yl]-5-fluoro-2-(3-oxa-8-azabicyclo[3.2.1]octan-8-yl)benzoic acid]",2.1 nM
11,"COC1CN(C2CN(c3cc(Cl)c(C(=O)N4COc5c(cccc5-c5cc(N6C7CCC6COC7)c(C(=O)O)cc5F)C4)c(Cl)c3)C2)C1 [Compound 5-13, 4-[3-[2,6-Dichloro-4-[3-(3-methoxyazetidin-1-yl)azetidin-1-yl]benzoyl]-2,4-dihydro-1,3-benzoxazin-8-yl]-5-fluoro-2-(3-oxa-8-azabicyclo[3.2.1]octan-8-yl)benzoic acid]",2.7 nM
12,"C[C@H]1COCCN1C1CN(c2cc(Cl)c(C(=O)N3COc4c(cccc4-c4cc(N5C6CCC5COC6)c(C(=O)O)cc4F)C3)c(Cl)c2)C1 [Compound 5-14, 4-[3-[2,6-Dichloro-4-[3-[(3S)-3-methylmorpholin-4-yl]azetidin-1-yl]benzoyl]-2,4-dihydro-1,3-benzoxazin-8-yl]-5-fluoro-2-(3-oxa-8-azabicyclo[3.2.1]octan-8-yl)benzoic acid]",2.9 nM
13,"C[C@@H]1COCCN1C1CN(c2cc(Cl)c(C(=O)N3COc4c(cccc4-c4cc(N5C6CCC5COC6)c(C(=O)O)cc4F)C3)c(Cl)c2)C1 [Compound 5-15, 4-[3-[2,6-Dichloro-4-[3-[(3R)-3-methylmorpholin-4-yl]azetidin-1-yl]benzoyl]-2,4-dihydro-1,3-benzoxazin-8-yl]-5-fluoro-2-(3-oxa-8-azabicyclo[3.2.1]octan-8-yl)benzoic acid]",3.1 nM
14,"COCC1(OC)CN(c2cc(Cl)c(C(=O)N3COc4c(cccc4-c4cc(N5C6CCC5COC6)c(C(=O)O)cc4F)C3)c(Cl)c2)C1 [Compound 6-1, 4-[3-[2,6-Dichloro-4-[3-methoxy-3-(methoxymethyl)azetidin-1-yl]benzoyl]-2,4-dihydro-1,3-benzoxazin-8-yl]-5-fluoro-2-(3-oxa-8-azabicyclo[3.2.1]octan-8-yl)benzoic acid]",2.1 nM
15,"COC1(C(F)(F)F)CN(c2cc(Cl)c(C(=O)N3COc4c(cccc4-c4cc(N5C6CCC5COC6)c(C(=O)O)cc4F)C3)c(Cl)c2)C1 [Compound 6-2, 4-[3-[2,6-Dichloro-4-[3-methoxy-3-(trifluoromethyl)azetidin-1-yl]benzoyl]-2,4-dihydro-1,3-benzoxazin-8-yl]-5-fluoro-2-(3-oxa-8-azabicyclo[3.2.1]octan-8-yl)benzoic acid]",2.8 nM
16,"O=C(O)c1cc(F)c(-c2cccc3c2OCN(C(=O)c2c(Cl)cc(N4CC(OCC(F)(F)F)C4)cc2Cl)C3)cc1N1C2CCC1COC2 [Compound 6-3, 4-[3-[2,6-Dichloro-4-[3-(2,2,2-trifluoroethoxy)azetidin-1-yl]benzoyl]-2,4-dihydro-1,3-benzoxazin-8-yl]-5-fluoro-2-(3-oxa-8-azabicyclo[3.2.1]octan-8-yl)benzoic acid]",5.7 nM
17,"COCC1(F)CN(c2cc(Cl)c(C(=O)N3COc4c(cccc4-c4cc(N5C6CCC5COC6)c(C(=O)O)cc4F)C3)c(Cl)c2)C1 [Compound 6-4, 4-[3-[2,6-Dichloro-4-[3-fluoro-3-(methoxymethyl)azetidin-1-yl]benzoyl]-2,4-dihydro-1,3-benzoxazin-8-yl]-5-fluoro-2-(3-oxa-8-azabicyclo[3.2.1]octan-8-yl)benzoic acid]",2 nM
18,"CCOC1CN(c2cc(Cl)c(C(=O)N3COc4c(cccc4-c4cc(N5C6CCC5COC6)c(C(=O)O)cc4F)C3)c(Cl)c2)C1 [Compound 6-5, 4-[3-[2,6-Dichloro-4-(3-ethoxyazetidin-1-yl)benzoyl]-2,4-dihydro-1,3-benzoxazin-8-yl]-5-fluoro-2-(3-oxa-8-azabicyclo[3.2.1]octan-8-yl)benzoic acid]",10 nM
19,"CC(C)OC1CN(c2cc(Cl)c(C(=O)N3COc4c(cccc4-c4cc(N5C6CCC5COC6)c(C(=O)O)cc4F)C3)c(Cl)c2)C1 [Compound 6-6, 4-[3-[2,6-Dichloro-4-(3-propan-2-yloxy-azetidin-1-yl)benzoyl]-2,4-dihydro-1,3-benzoxazin-8-yl]-5-fluoro-2-(3-oxa-8-azabicyclo[3.2.1]octan-8-yl)benzoic acid]",12 nM
20,"O=C(O)c1cc(F)c(-c2cccc3c2OCN(C(=O)c2c(Cl)cc(N4CC(OC5COC5)C4)cc2Cl)C3)cc1N1C2CCC1COC2 [Compound 6-7, 4-[3-[2,6-Dichloro-4-[3-(oxetan-3-yloxy)azetidin-1-yl]benzoyl]-2,4-dihydro-1,3-benzoxazin-8-yl]-5-fluoro-2-(3-oxa-8-azabicyclo[3.2.1]octan-8-yl)benzoic acid]",5.7 nM
21,"COCCOC1CN(c2cc(Cl)c(C(=O)N3COc4c(cccc4-c4cc(N5C6CCC5COC6)c(C(=O)O)cc4F)C3)c(Cl)c2)C1 [Compound 6-8, 4-[3-[2,6-Dichloro-4-[3-(2-methoxyethoxy)azetidin-1-yl]benzoyl]-2,4-dihydro-1,3-benzoxazin-8-yl]-5-fluoro-2-(3-oxa-8-azabicyclo[3.2.1]octan-8-yl)benzoic acid]",2.4 nM
22,"COCCOC1CC2(C1)CN(c1cc(Cl)c(C(=O)N3COc4c(cccc4-c4cc(N5C6CCC5COC6)c(C(=O)O)cc4F)C3)c(Cl)c1)C2 [Compound 6-9, 4-[3-[2,6-Dichloro-4-[6-(2-methoxyethoxy)-2-azaspiro[3.3]heptan-2-yl]benzoyl]-2,4-dihydro-1,3-benzoxazin-8-yl]-5-fluoro-2-(3-oxa-8-azabicyclo[3.2.1]octan-8-yl)benzoic acid]",2.2 nM
23,"O=C(O)c1cc(F)c(-c2cccc3c2OCN(C(=O)c2c(Cl)cc(N4CC5(CC(OC6COC6)C5)C4)cc2Cl)C3)cc1N1C2CCC1COC2 [Compound 6-10, 4-[3-[2,6-Dichloro-4-[6-(oxetan-3-yloxy)-2-azaspiro[3.3]heptan-2-yl]benzoyl]-2,4-dihydro-1,3-benzoxazin-8-yl]-5-fluoro-2-(3-oxa-8-azabicyclo[3.2.1]octan-8-yl)benzoic acid]",3.7 nM
